According to PubChem BioAssay (NCI):
Values joined by “and” are separate entries in the source; they are usually repeats but may differ in a detail not shown here. Identical values can stand only once.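 The compound was tested at five concentrations on cells cultured in 96-well plates, with a 48-hour exposure period. GI50 marks 50% less growth. TGI denotes the concentration required for complete inhibition of growth.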

Columns and labels:
Test in all cases: inhibition of tumour cell growth, NCI panel, 48 h
[1] = test system: OVCAR-4 ovarian
[2] = test system: OVCAR-3 ovarian
[3] = test system: SF-268 CNS
[4] = test system: SF-295 CNS
[5] = test system: SK-MEL-2 melanoma
[6] = test system: OVCAR-5 ovarian
[7] = test system: CCRF-CEM leukemia
[8] = test system: MCF7 breast
[9] = test system: 786-0 renal
[10] = test system: MOLT-4 leukemia

Clc1ccc2c(NCCCCNc3nc(N4CCOCC4)nc4ccccc34)ccnc2c1
GI50 [1]: 2.2 µM
TGI [1]: 5.52 µM
GI50 [2]: 1.93 µM
TGI [2]: 3.7 µM
GI50 [3]: 3.29 µM
TGI [3]: 13.7 µM
GI50 [4]: 1.79 µM
TGI [4]: 3.73 µM
GI50 [5]: 2.23 µM
TGI [5]: 5.02 µM
GI50 [6]: 3.36 µM
TGI [6]: 12 µM
GI50 [7]: 3.42 µM
TGI [7]: 9.38 µM
GI50 [8]: 3.81 µM
TGI [8]: 17.7 µM
GI50 [9]: 2.28 µM
TGI [9]: 5.94 µM
GI50 [10]: 3.59 µM
TGI [10]: 14 µM

O=c1oc2ccccc2cc1P(=O)(O)O
TGI [1]: > 100 µM
TGI [2]: > 100 µM
TGI [3]: > 100 µM
TGI [4]: > 100 µM
TGI [5]: > 100 µM
TGI [6]: > 100 µM
TGI [7]: > 100 µM
TGI [8]: > 100 µM
TGI [9]: > 100 µM
TGI [10]: > 100 µM

C[C@]12CC[C@H]3[C@@H](CCC4=CC(=O)CC[C@@]43C)[C@]1(O)CC[C@]2(O)C(=O)CO
TGI [1]: > 100 µM
TGI [2]: > 100 µM
TGI [3]: > 100 µM
TGI [4]: > 100 µM
TGI [5]: > 100 µM
TGI [6]: > 100 µM
TGI [7]: > 100 µM
TGI [8]: > 100 µM
TGI [9]: > 100 µM
TGI [10]: > 100 µM

CCCCCCCCCCCC1=NC(C)(C)CN1C(C)C
GI50 [1]: 4.29 µM
TGI [1]: 15.9 µM
GI50 [2]: 1.94 µM
TGI [2]: 6.14 µM
GI50 [3]: 5.51 µM
TGI [3]: 18.2 µM
GI50 [4]: 3.05 µM
TGI [4]: 10.7 µM
GI50 [5]: 3.2 µM
TGI [5]: 10 µM
GI50 [6]: 4.14 µM
TGI [6]: 16.1 µM
GI50 [7]: 2.7 µM
TGI [7]: 10.1 µM
GI50 [8]: 2.81 µM
TGI [8]: 8.68 µM
GI50 [9]: 3.57 µM
TGI [9]: 13 µM
GI50 [10]: 2.67 µM
TGI [10]: 7.44 µM

Oc1ccc(CCNc2nc3ccccc3c3[nH]c4ccccc4c23)cc1O
GI50 [1]: 4.8 µM
TGI [1]: 16.9 µM
GI50 [2]: 1.77 µM
TGI [2]: 3.7 µM
GI50 [3]: 5.7 µM
TGI [3]: 30.1 µM
GI50 [4]: 5.51 µM
TGI [4]: > 100 µM
GI50 [5]: 1.73 µM
TGI [5]: 3.59 µM
GI50 [6]: 14 µM
TGI [6]: 26.9 µM
GI50 [7]: 1.59 µM
TGI [7]: 4.35 µM
GI50 [8]: 3.13 µM
GI50 [9]: 1.62 µM
TGI [9]: 2.98 µM
GI50 [10]: 2.16 µM
TGI [10]: 5.38 µM

CN(C)CCN1C(=O)c2cccc3cc(N)cc(c23)C1=O
TGI [1]: 33.7 µM and 18.3 µM
GI50 [2]: 4.98 µM
TGI [2]: 25.9 µM and 26.4 µM
GI50 [3]: 3.83 µM
TGI [3]: 25.6 µM and 28.9 µM
GI50 [4]: 2.29 µM
TGI [4]: 9.31 µM and 18.4 µM
GI50 [5]: 3.73 µM
TGI [5]: 13 µM and 9.4 µM
GI50 [6]: 3.98 µM
TGI [6]: 48.7 µM and 13.8 µM
GI50 [7]: 3.45 µM
TGI [7]: > 50.7 µM and 20 µM
GI50 [8]: 1.38 µM
TGI [8]: 22.2 µM and 18.5 µM
GI50 [9]: 4.16 µM
TGI [9]: > 81.6 µM and 23 µM
GI50 [10]: 1.88 µM
TGI [10]: > 100 µM and 13.5 µM

Cc1ccc(NC(=O)c2ccoc2)cc1-c1ccc(C(=O)NCC2CC2)cc1
GI50 [1]: > 18.8 µM
TGI [1]: > 25 µM
GI50 [2]: > 17.9 µM
TGI [2]: > 25 µM
GI50 [3]: > 25 µM
TGI [3]: > 25 µM
GI50 [4]: > 14.8 µM
TGI [4]: > 25 µM
GI50 [5]: > 25 µM
TGI [5]: > 25 µM
GI50 [6]: > 25 µM
TGI [6]: > 25 µM
GI50 [7]: > 25 µM
TGI [7]: > 25 µM
GI50 [8]: > 16.1 µM
TGI [8]: > 25 µM
GI50 [9]: > 25 µM
TGI [9]: > 25 µM
GI50 [10]: > 25 µM
TGI [10]: > 25 µM

COCCn1c(Nc2ccc(C(=O)NO)cc2)nc2ccccc21
GI50 [1]: 16.1 µM
TGI [1]: > 100 µM
GI50 [2]: 3.24 µM
TGI [2]: 14.1 µM
GI50 [3]: 4.9 µM
TGI [3]: 17.5 µM
GI50 [4]: 2.93 µM
TGI [4]: 16.3 µM
GI50 [5]: 5.33 µM
TGI [5]: 50.3 µM
GI50 [6]: 1.69 µM
TGI [6]: 8.23 µM
GI50 [7]: 3.52 µM
TGI [7]: > 100 µM
GI50 [8]: 5.45 µM
TGI [8]: > 100 µM
GI50 [9]: 10.5 µM
TGI [9]: 23.5 µM
GI50 [10]: 3.86 µM
TGI [10]: > 100 µM

CC(C)(C)CNCCO
TGI [1]: > 100 µM
TGI [2]: > 100 µM
TGI [3]: > 100 µM
TGI [4]: > 100 µM
TGI [5]: > 100 µM
TGI [6]: > 100 µM
TGI [7]: > 100 µM
TGI [8]: > 100 µM
TGI [9]: > 100 µM
TGI [10]: > 45.7 µM
